Test system: 266 human PDZ domains (PDZome)
Experiment: Holdup assay (chromatographic retention, PDZome-binding profile, BI)
Set-up: key to maximal BI / Max BI / BI: binding intensity: 0.00 = no binding, 1.00 = maximal binding
Summary of the method: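 Streptavidin resin was saturated with biotinylated 11-mer or 13-mer PTEN PBM peptides (42 μM loading solution), with biotin-only resin as the reference. Resins were incubated for 15 min with lysates containing MBP- or thioredoxin-tagged PDZ domains adjusted to 4 μM, in singlicate. Free PDZ in the filtrate was quantified by capillary electrophoresis, and depletion versus reference gave binding intensity (0–1).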

## CC[C@H](C)[C@H](NC(=O)[C@H](CCC(N)=O)NC(=O)[C@@H](NC(=O)[C@H](Cc1c[nH]cn1)NC(=O)[C@H](CCC(N)=O)NC(=O)[C@H](CC(=O)O)NC(=O)[C@H](CCC(=O)O)NC(=O)[C@H](CC(=O)O)NC(=O)CCC(=O)NCCCOCCOCCOCCCNC(=O)CCCC[C@@H]1SC[C@@H]2NC(=O)N[C@@H]21)[C@@H](C)O)C(=O)N[C@H](C(=O)N[C@@H](CCCCNC(C)=O)C(=O)N[C@H](C(=O)O)C(C)C)[C@@H](C)O [PTEN_Ac]
BI>0.20, compared with PTEN_11
  number of additional new PDZ partners not detected for PTEN_11: at least 20
PDZ domain MPDZ-2
  BI: 0.353
PDZ domain MPDZ-3
  BI: 0.002
PDZ domain MPDZ-4
  BI: 0.029
PDZ domain MPDZ-5
  BI: -0.014
PDZ domain MPDZ-6
  BI: -0.058
PDZ domain MPDZ-7
  BI: 0.624
PDZ domain MPDZ-8
  BI: 0.172
PDZ domain MPDZ-9 (gene NHERF2, 2)
  BI: 0.016
PDZ domain MPDZ-12
  BI: 0.019
PDZ domain MPDZ-13
  BI: 0.351
PDZ domain MPP1-1
  BI: -0.054
PDZ domain MPP3-1
  BI: -0.063
PDZ domain MPP4-1
  BI: -0.043
PDZ domain MPP5-1
  BI: -0.048
PDZ domain MPP6-1
  BI: -0.03
PDZ domain MPP7-1
  BI: -0.045
PDZ domain NHERF1-2
  BI: 0.046
PDZ domain NHERF3-1
  BI: 0.45
PDZ domain NHERF3-2
  BI: 0.105
PDZ domain NHERF3-3
  BI: 0.021
PDZ domain NHERF3-4
  BI: -0.017
PDZ domain NHERF4-1
  BI: -0.007
PDZ domain NHERF4-2
  BI: 0.014
PDZ domain NHERF4-3
  BI: -0.031
PDZ domain NHERF4-4
  BI: -0.03
PDZ domain NOS1-1
  BI: 0.106
PDZ domain PARD3-1, first of two lines so named (r186)
  BI: 0.035
PDZ domain PARD3-1, second of two lines so named (r187)
  BI: -0.073
PDZ domain PARD3-2
  BI: 0.074
PDZ domain PARD3B-1
  BI: -0.205
PDZ domain PARD3B-2
  BI: -0.04
PDZ domain PARD3B-3
  BI: -0.007
PDZ domain PARD6A-1
  BI: 0.007
PDZ domain PARD6G-1
  BI: -0.034
PDZ domain PCLO-1
  BI: -0.088
PDZ domain PDLIM1-1
  BI: -0.087
PDZ domain PDLIM3-1
  BI: -0.026
PDZ domain PDLIM4-1
  BI: -0.03
PDZ domain PDLIM5-1
  BI: -0.022
PDZ domain PDLIM7-1
  BI: -0.025
PDZ domain PDZD2-1
  BI: -0.095
PDZ domain PDZD2-2
  BI: 0.195
PDZ domain PDZD2-3
  BI: 0.017
PDZ domain PDZD2-5
  BI: -0.091
PDZ domain PDZD2-6
  BI: -0.026
PDZ domain PDZD4-1
  BI: 0.085
PDZ domain PDZD7-1
  BI: -0.051
PDZ domain PDZD7-3
  BI: 0.901
PDZ domain PDZD8-1
  BI: -0.202
PDZ domain PDZD9-1
  BI: -0.019
PDZ domain PDZD11-1
  BI: -0.017
PDZ domain PDZRN3-1
  BI: -0.019
PDZ domain PDZRN3-2
  BI: 0.016
PDZ domain PDZRN4-1
  BI: -0.064
PDZ domain PDZRN4-2
  BI: 0.099
PDZ domain PICK1-1
  BI: 0.052
PDZ domain PPP1R9A-1
  BI: 0.066
PDZ domain PPP1R9B-1
  BI: -0.044
PDZ domain PREX1-1
  BI: -0.014
PDZ domain PREX2-2
  BI: 0.096
PDZ domain PRX-1
  BI: -0.021
PDZ domain PSCDBP-1
  BI: -0.005
PDZ domain PSMD9-1
  BI: -0.007
PDZ domain PTPN3-1
  BI: 0.05
PDZ domain PTPN4-1
  BI: 0.02
PDZ domain PTPN13-1
  BI: -0.024
PDZ domain PTPN13-3
  BI: -0.028
PDZ domain PTPN13-5
  BI: -0.046
PDZ domain RADIL-1
  BI: 0.522
PDZ domain RAPGEF2-1
  BI: -0.076
PDZ domain RAPGEF6-1
  BI: 0.035
PDZ domain RGS3-1
  BI: -0.001
PDZ domain RGS12-1
  BI: 0.033
PDZ domain RHPN2-1
  BI: -0.044
PDZ domain RIMS1-1
  BI: -0.02
PDZ domain RIMS2-1
  BI: -0.022
PDZ domain SCRIB-2
  BI: 0.163
PDZ domain SCRIB-4
  BI: 0.058
PDZ domain SDCBP2-2
  BI: -0.013
PDZ domain SDCBP-2
  BI: -0.05
PDZ domain SHANK1-1
  BI: 0.152
PDZ domain SHANK2-1
  BI: 0.209
PDZ domain SHANK3-1
  BI: 0.235
PDZ domain SHROOM2-1
  BI: -0.072
PDZ domain SHROOM3-1
  BI: -0.048
PDZ domain SHROOM4-1
  BI: -0.073
PDZ domain SIPA1L2-1
  BI: -0.001
PDZ domain SIPA1L3-1
  BI: -0.046
PDZ domain SNTA1-1
  BI: 0.41
PDZ domain SNTB1-1
  BI: 0.548
PDZ domain SNTG1-1
  BI: 0.345
PDZ domain SNTG2-1
  BI: -0.077
PDZ domain STXB4-1
  BI: -0.072
PDZ domain SYNJ2BP-1
  BI: 0.023
PDZ domain SYNP2-1
  BI: 0.005
PDZ domain SYNPO2L-1
  BI: 0.063
PDZ domain TIAM1-1
  BI: -0.072
PDZ domain TIAM2-1
  BI: -0.008
PDZ domain TJP1-1
  BI: 0.198
holdup, singlicate, threshold BI>0.20
  number of PDZ domains identified as potential binders (BI>0.20): 43 PDZ domains
holdup, singlicate, highest BI in the PDZome profile, BI standard error ~0.07
  maximal BI: 0.90
Including several ones from MAGI and NHERF
  binding of several PDZ domains (in words): detectably bound
Maximum over PDZome
  Max BI: 0.90
Over a total of 43
  number of partners detected for PTEN_Ac and not for PTEN_KR: 15

Reference: paper PMC7774954, “Interactomic affinity profiling by holdup assay: Acetylation and distal residues impact the PDZome-binding specificity of PTEN phosphatase” (PLoS ONE, 2020)
